The assay relates to REV1 CTD-REV7 interaction. The experiment in a line: ELISA assay probing the REV1 CTD-REV7 interaction. The settings on record: ratio of test compound IC50 to RE01 IC50. In kind it is binding, mouse. On the procedure: The ELISA assay for probing the REV1 CTD-REV7 interaction was carried out by immobilizing 50 nM His8-tagged REV7/3 in 200 μL phosphate-buffered saline (PBS, Gibco) containing 0.2% BSA in a Ni-NTA coated 96-well plate (HisSorb, Qiagen) for 30 minutes. Unbound His8-tagged REV7/3 was removed by washing the wells four times with PBS containing 0.05% Tween-20. […] After incubation for 30 minutes, the wells were washed four times with PBS containing 0.05% Tween-20 to remove the unbound FLAG-tagged POL κ RIR-REV1 CTD. A solution of the anti-FLAG horseradish peroxidase (HRP)-conjugated antibody (Sigma-Aldrich) in PBS containing 0.2% BSA was then added to the wells. After incubating for 1 hour, the antibody was washed off four times with PBS containing 0.05% Tween-20. The 3,3′,5,5′-tetramethylbenzedine (TMB) substrate (SureBlue TMB, Seracare) was added to the wells. After incubation of 20-30 minutes, the reaction was quenched with 1 M HCl. A SpectraMax plate reader (Molecular Devices) was used to measure absorbance at 450 nm.
With `CC(C)CC(=O)c1c(Nc2ccc(Br)cc2Br)[nH]c2c(Cl)ccc([N+](=O)[O-])c2c1=O` [RE04, 8-chloro-2-((2,4-dibromophenyl)amino)-3-(3-methylbutanoyl)-5-nitroquinolin-4(1H)-one], the “Relative IC50 Ratio” value was “B (B represents a ratio of test compound IC50 so to RE1 IC50 between 0.8 and 1.5)”. With `CC(C)CC(=O)c1c(Nc2ccc(C(=O)O)cc2Cl)[nH]c2c(Cl)ccc([N+](=O)[O-])c2c1=O` [RE06, 3-chloro-4-((8-chloro-3-(3-methylbutanoyl)-5-nitro-4-oxo-1,4-dihydroquinolin-2-yl)amino)benzoic acid] the entry was “C (C represents a ratio of test compound IC50 to RE01 IC50 between 1.5-10)”; with `CC(C)CC(=O)c1c(Nc2ccc(Cl)cc2Cl)[nH]c2c(C(=O)O)ccc(Cl)c2c1=O` [RE08, 5-chloro-2-((2,4-dichlorophenyl)amino)-3-(3-methylbutanoyl)-4-oxo-1,4-dihydroquinoline-8-carboxylic acid], “B (B represents a ratio of test compound IC50 so to RE1 IC50 between 0.8 and 1.5)”; with `CC(C)CC(=O)c1c(Nc2ccc(Cl)cc2Cl)[nH]c2c(Cl)ccc(C(=O)O)c2c1=O` [RE09, 8-chloro-2-((2,4-dichlorophenyl)amino)-3-(3-methylbutanoyl)-4-oxo-1,4-dihydroquinoline-5-carboxylic acid], “B (B represents a ratio of test compound IC50 so to RE1 IC50 between 0.8 and 1.5)”.

For the compound `CC(C)CC(=O)c1c(Nc2ccc(Cl)cc2Cl)[nH]c2c(C(=O)O)ccc([N+](=O)[O-])c2c1=O` [RE10, 2-((2,4-dichlorophenyl)amino)-3-(3-methylbutanoyl)-5-nitro-4-oxo-1,4-dihydroquinoline-8-carboxylic acid], the “Relative IC50 Ratio” value is “B (B represents a ratio of test compound IC50 so to RE1 IC50 between 0.8 and 1.5)”. With `CC(C)CC(=O)c1c(Nc2ccc(Cl)cc2Cl)[nH]c2c(Cl)ccc(N)c2c1=O` [RE11, 5-amino-8-chloro-2-((2,4-dichlorophenyl)amino)-3-(3-methylbutanoyl)quinolin-4(1H)-one] the entry was “C (C represents a ratio of test compound IC50 to RE01 IC50 between 1.5-10)”; with `CC(=O)c1c(Nc2ccc(Cl)cc2Cl)[nH]c2c(Cl)ccc([N+](=O)[O-])c2c1=O` [RE12, 3-acetyl-8-chloro-2-((2,4-dichlorophenyl)amino)-5-nitroquinolin-4(1H)-one], “B (B represents a ratio of test compound IC50 so to RE1 IC50 between 0.8 and 1.5)”; with `O=C(O)/C(O)=C/C(=O)c1c(Nc2ccc(Cl)cc2Cl)[nH]c2c(Cl)ccc([N+](=O)[O-])c2c1=O` [RE13, (Z)-4-(8-chloro-2-((2,4-dichlorophenyl)amino)-5-nitro-4-oxo-1,4-dihydroquinolin-3-yl)-2-hydroxy-4-oxobut-2-enoic acid], “A (A represents a ratio of test compound IC50 to RE01 IC50 of less than 0.8)”. For the compound `CC(=NO)c1c(Nc2ccc(Cl)cc2Cl)[nH]c2c(Cl)ccc([N+](=O)[O-])c2c1=O` [RE14, 8-chloro-2-((2,4-dichlorophenyl)amino)-3-(1-(hydroxyimino)ethyl)-5-nitroquinolin-4(1H)-one], the “Relative IC50 Ratio” value was “B (B represents a ratio of test compound IC50 so to RE1 IC50 between 0.8 and 1.5)”. To `CC(O)c1c(Nc2ccc(Cl)cc2Cl)[nH]c2c(Cl)ccc([N+](=O)[O-])c2c1=O` (stereo not drawn) [RE15, 8-chloro-2-((2,4-dichlorophenyl)amino)-3-(1-hydroxyethyl)-5-nitroquinolin-4(1H)-one] belongs “B (B represents a ratio of test compound IC50 so to RE1 IC50 between 0.8 and 1.5)”; to `CC(C)CC(=O)c1c(Nc2ccccc2)[nH]c2c(Cl)ccc([N+](=O)[O-])c2c1=O` [RE16, 8-chloro-3-(3-methylbutanoyl)-5-nitro-2-(phenylamino)quinolin-4(1H)-one], “C (C represents a ratio of test compound IC50 to RE01 IC50 between 1.5-10)”; to `CC(C)CC(=O)c1c(Nc2ccc(I)cc2I)[nH]c2c(Cl)ccc([N+](=O)[O-])c2c1=O` [RE17, 8-chloro-2-((2,4-diiodophenyl)amino)-3-(3-methylbutanoyl)-5-nitroquinolin-4(1H)-one], “B (B represents a ratio of test compound IC50 so to RE1 IC50 between 0.8 and 1.5)”. To `CC(C)CC(=O)c1c(Nc2ccc(Cl)cc2C(F)(F)F)[nH]c2c(Cl)ccc([N+](=O)[O-])c2c1=O` [RE18, 8-chloro-2-((4-chloro-2-(trifluoromethyl)phenyl)amino)-3-(3-methylbutanoyl)-5-nitroquinolin-4(1H)-one] belongs “A (A represents a ratio of test compound IC50 to RE01 IC50 of less than 0.8)”; to `CC(C)CC(=O)c1c(Nc2ccc3ccccc3c2)[nH]c2c(Cl)ccc([N+](=O)[O-])c2c1=O` [RE19, 8-chloro-3-(3-methylbutanoyl)-2-(naphthalen-2-ylamino)-5-nitroquinolin-4(1H)-one], “B (B represents a ratio of test compound IC50 so to RE1 IC50 between 0.8 and 1.5)”; to `CC(C)CC(=O)c1c(Nc2ccc(Cl)cc2)[nH]c2c(Cl)ccc([N+](=O)[O-])c2c1=O` [RE20, 8-chloro-2-((4-chlorophenyl)amino)-3-(3-methylbutanoyl)-5-nitroquinolin-4(1H)-one], “C (C represents a ratio of test compound IC50 to RE01 IC50 between 1.5-10)”.

Regarding `CC(C)CC(=O)c1c(Nc2ccc(C(C)C)cc2)[nH]c2c(Cl)ccc([N+](=O)[O-])c2c1=O` [RE21, 8-chloro-2-((4-isopropylphenyl)amino)-3-(3-methylbutanoyl)-5-nitroquinolin-4(1H)-one], the “Relative IC50 Ratio” value is “C (C represents a ratio of test compound IC50 to RE01 IC50 between 1.5-10)”. `Cc1ccc(Nc2[nH]c3c(Cl)ccc([N+](=O)[O-])c3c(=O)c2C(=O)CC(C)C)c(C)c1` [RE22, 8-chloro-2-((2,4-dimethylphenyl)amino)-3-(3-methylbutanoyl)-5-nitroquinolin-4(1H)-one]: the “Relative IC50 Ratio” value is listed as “C (C represents a ratio of test compound IC50 to RE01 IC50 between 1.5-10)”. To `CC(C)CC(=O)c1c(Nc2ccccc2Cl)[nH]c2c(Cl)ccc([N+](=O)[O-])c2c1=O` [RE23, 8-chloro-2-((2-chlorophenyl)amino)-3-(3-methylbutanoyl)-5-nitroquinolin-4(1H)-one] belongs “B (B represents a ratio of test compound IC50 so to RE1 IC50 between 0.8 and 1.5)”; to `CC(C)CC(=O)c1c(Nc2ccc(F)cc2F)[nH]c2c(Cl)ccc([N+](=O)[O-])c2c1=O` [RE24, 8-chloro-2-((2,4-difluorophenyl)amino)-3-(3-methylbutanoyl)-5-nitroquinolin-4(1H)-one], “C (C represents a ratio of test compound IC50 to RE01 IC50 between 1.5-10)”. As to `CC(C)CC(=O)c1c(Nc2ccc(Cl)cc2Cl)[nH]c2c(Cl)cccc2c1=O` [RE25, 8-chloro-2-((2,4-dichlorophenyl)amino)-3-(3-methylbutanoyl)quinolin-4(1H)-one], the “Relative IC50 Ratio” value was “C (C represents a ratio of test compound IC50 to RE01 IC50 between 1.5-10)”. As for `CC(C)CC(=O)c1c(Nc2ccc(Cl)cc2Cl)[nH]c2c(Cl)ccc(C(F)(F)F)c2c1=O` [RE26, 8-chloro-2-((2,4-dichlorophenyl)amino)-3-(3-methylbutanoyl)-5-(trifluoromethyl)quinolin-4(1H)-one], the “Relative IC50 Ratio” value is on record as “C (C represents a ratio of test compound IC50 to RE01 IC50 between 1.5-10)”. Take `Cc1ccc(Cl)c2[nH]c(Nc3ccc(Cl)cc3Cl)c(C(=O)CC(C)C)c(=O)c12` [RE27, 8-chloro-2-((2,4-dichlorophenyl)amino)-5-methyl-3-(3-methylbutanoyl)quinolin-4(1H)-one]: the “Relative IC50 Ratio” value is reported as “C (C represents a ratio of test compound IC50 to RE01 IC50 between 1.5-10)”. To `CC(C)CC(=O)c1c(Nc2ccc(Cl)cc2Cl)[nH]c2ccccc2c1=O` [RE28, 2-((2,4-dichlorophenyl)amino)-3-(3-methylbutanoyl)quinolin-4(1H)-one] belongs “A (A represents a ratio of test compound IC50 to RE01 IC50 of less than 0.8)”.

Regarding `COc1ccc(Cl)c2[nH]c(Nc3ccc(Cl)cc3Cl)c(C(=O)CC(C)C)c(=O)c12` [RE29, 8-chloro-2-((2,4-dichlorophenyl)amino)-5-methoxy-3-(3-methylbutanoyl)quinolin-4(1H)-one], the “Relative IC50 Ratio” value is “A (A represents a ratio of test compound IC50 to RE01 IC50 of less than 0.8)”. With `CC(C)CC(=O)c1c(Nc2ccc(Cl)cc2Cl)[nH]c2c(Cl)ccc(O)c2c1=O` [RE30, 8-chloro-2-((2,4-dichlorophenyl)amino)-5-hydroxy-3-(3-methylbutanoyl)quinolin-4(1H)-one] the entry was “C (C represents a ratio of test compound IC50 to RE01 IC50 between 1.5-10)”; with `CC(C)CC(=O)c1c(Nc2ccc(Cl)c(Cl)c2)[nH]c2c(Cl)ccc([N+](=O)[O-])c2c1=O` [RE31, 8-chloro-2-((3,4-dichlorophenyl)amino)-3-(3-methylbutanoyl)-5-nitroquinolin-4(1H)-one], “C (C represents a ratio of test compound IC50 to RE01 IC50 between 1.5-10)”.

For `CC(C)CC(=O)c1c(Nc2c(F)cc(F)cc2F)[nH]c2c(Cl)ccc([N+](=O)[O-])c2c1=O` [RE33, 8-chloro-3-(3-methylbutanoyl)-5-nitro-2-((2,4,6-trifluorophenyl)amino)quinolin-4(1H)-one], the “Relative IC50 Ratio” value is “C (C represents a ratio of test compound IC50 to RE01 IC50 between 1.5-10)”.

The record behind these values is patent US11801242B2, “Compositions and methods for adjuvant cancer therapeutics” (DUKE UNIVERSITY, priority 2018, dated 2023).
